Measurements taken from ChEMBL document CHEMBL5579834 (Eur J Med Chem, 2024).
pIC50: −log10 of the molar value.

Legend:
Marburgvirus = test: Antiviral activity against HIV-based lentiviral pseudotyped Marburgvirus harboring mucin domain deleted GP infected in HEK293T cells assessed as inhibition of viral entry preincubated with virus for 1 hr followed by cell infection and measured after 48 hrs by luminescence assay; assay type: functional, organism-based; conditions: Orthomarburgvirus, HEK-293T
Ebolavirus [1] = test: Antiviral activity against HIV-based lentiviral pseudotyped Ebolavirus harboring mucin domain deleted GP infected in HEK293T cells assessed as inhibition of viral entry preincubated with virus for 1 hr followed by cell infection and measured after 48 hrs by luminescence assay; assay type: functional, organism-based; conditions: Orthoebolavirus, HEK-293T
[2] = Selectivity index, ratio of CC50 for HEK293T cells to IC50 for antiviral activity against HIV-based lentiviral pseudotyped Ebolavirus harboring mucin domain deleted GP infected in HEK293T cells assessed as inhibition of viral entry; assay type: toxicity, cell-based; conditions: human, read-out: Ratio CC50/IC50
[3] = Selectivity index, ratio of CC50 for HEK293T cells to IC50 for antiviral activity against HIV-based lentiviral pseudotyped Marburgvirus harboring mucin domain deleted GP infected in HEK293T cells assessed as inhibition of viral entry; assay type: toxicity, cell-based; conditions: human, read-out: Ratio CC50/IC50
Ebolavirus [4] = test: Antiviral activity against pseudotyped Ebolavirus harboring GP; assay type: functional, organism-based; conditions: Orthoebolavirus

With `CN1CCN(CCCC(=O)O[C@H]2C(C)(C)[C@H]3CC[C@]2(C)C3)CC1` as the compound, how does the pIC50 (Marburgvirus) read?
The pIC50 was 4.68.

What about the pIC50 (Ebolavirus [1]) of the same compound?
The pIC50 was 5.51.

With `CC1(C)[C@H]2CC[C@](C)(C2)[C@H]1OC(=O)CN1CCOCC1` as the compound, how does the pIC50 (Marburgvirus) read?
The pIC50 was 3.67.

What about the pIC50 (Ebolavirus [1]) of the same compound?
Its pIC50 is 4.89.

What about the selectivity ratio [2] of the same compound?
Its selectivity ratio is 22.

What about the selectivity ratio [3] of the same compound?
Its selectivity ratio is 1.

With `CN1CCN(CC(=O)O[C@H]2C(C)(C)[C@H]3CC[C@]2(C)C3)CC1` as the compound, how does the pIC50 (Marburgvirus) read?
Its pIC50 is 4.56.

And the pIC50 (Ebolavirus [1])?
The pIC50 was 4.69.

With `CCN1CCN(CCC(=O)O[C@H]2C(C)(C)[C@H]3CC[C@]2(C)C3)CC1` as the compound, how does the pIC50 (Marburgvirus) read?
The pIC50 was 4.60.

What about the pIC50 (Ebolavirus [1]) of the same compound?
The pIC50 was 5.09.

What about the selectivity ratio [2] of the same compound?
The selectivity ratio was 44.

What about the selectivity ratio [3] of the same compound?
The selectivity ratio was 14.

With `CC1(C)[C@H]2CC[C@](C)(C2)[C@H]1OC(=O)CCCN1CCCCC1` as the compound, how does the pIC50 (Marburgvirus) read?
Its pIC50 is 4.89.

What about the pIC50 (Ebolavirus [1]) of the same compound?
Its pIC50 is 5.72.

With `CN1CCN(CCC(=O)O[C@H]2C(C)(C)[C@H]3CC[C@]2(C)C3)CC1` as the compound, how does the pIC50 (Marburgvirus) read?
The pIC50 was 4.54.

And the pIC50 (Ebolavirus [1])?
Its pIC50 is 5.00.

What about the selectivity ratio [2] of the same compound?
Its selectivity ratio is 45.

And the selectivity ratio [3]?
The selectivity ratio was 16.

With `C[C@@H]1[C@H]2C[C@@H](C[C@H]1OC(=O)CCN1CCN(c3ccccc3)CC1)C2(C)C` as the compound, how does the pIC50 (Marburgvirus) read?
The pIC50 was 4.57.

What about the pIC50 (Ebolavirus [1]) of the same compound?
Its pIC50 is 4.27.

What about the selectivity ratio [2] of the same compound?
The selectivity ratio was 2.

And the selectivity ratio [3]?
Its selectivity ratio is 4.

With `C[C@@H]1[C@H]2C[C@@H](C[C@H]1OC(=O)CCCN1CCN(c3ccccc3)CC1)C2(C)C` as the compound, how does the pIC50 (Marburgvirus) read?
The pIC50 was 4.74.

What about the pIC50 (Ebolavirus [1]) of the same compound?
Its pIC50 is 5.11.

And the selectivity ratio [2]?
The selectivity ratio was 8.

What about the selectivity ratio [3] of the same compound?
Its selectivity ratio is 3.

With `C[C@@H]1[C@H]2C[C@@H](C[C@H]1OC(=O)CCN1CCN(C)CC1)C2(C)C` as the compound, how does the pIC50 (Marburgvirus) read?
The pIC50 was 4.86.

What about the pIC50 (Ebolavirus [1]) of the same compound?
Its pIC50 is 5.31.

With `CCN1CCN(CCCC(=O)O[C@H]2C(C)(C)[C@H]3CC[C@]2(C)C3)CC1` as the compound, how does the pIC50 (Marburgvirus) read?
Its pIC50 is 4.95.

And the pIC50 (Ebolavirus [1])?
Its pIC50 is 5.62.

With `CCN1CCN(S(=O)(=O)C[C@]23CC[C@H](CC2=O)C3(C)C)CC1` as the compound, how does the pIC50 (Ebolavirus [4]) read?
The pIC50 was 4.04.

With `C[C@@H]1[C@H]2C[C@@H](C[C@H]1OC(=O)CN1CCN(C)CC1)C2(C)C` as the compound, how does the pIC50 (Marburgvirus) read?
Its pIC50 is 4.32.

What about the pIC50 (Ebolavirus [1]) of the same compound?
Its pIC50 is 5.32.

With `C[C@@H]1[C@H]2C[C@@H](C[C@H]1OC(=O)CN1CCN(c3ccccc3)CC1)C2(C)C` as the compound, how does the pIC50 (Marburgvirus) read?
Its pIC50 is 4.60.

What about the pIC50 (Ebolavirus [1]) of the same compound?
Its pIC50 is 5.05.

And the selectivity ratio [2]?
Its selectivity ratio is 6.

And the selectivity ratio [3]?
The selectivity ratio was 2.

With `CC1CCN(CC(=O)O[C@H]2C(C)(C)[C@H]3CC[C@]2(C)C3)CC1` as the compound, how does the pIC50 (Marburgvirus) read?
The pIC50 was 4.69.

And the pIC50 (Ebolavirus [1])?
Its pIC50 is 4.69.

Which results are given for `CC1(C)[C@H]2CC[C@](C)(C2)[C@H]1OC(=O)CCCN1CCN(c2ccccc2)CC1`?
pIC50 (Marburgvirus): 5.22; pIC50 (Ebolavirus [1]): 6.27; selectivity ratio [2]: 22; selectivity ratio [3]: 10

Which results are given for `CC1(C)[C@H]2CC[C@](C)(C2)[C@H]1OC(=O)CCN1CCN(c2ccccc2)CC1`?
pIC50 (Marburgvirus): 5.14; pIC50 (Ebolavirus [1]): 5.00; selectivity ratio [2]: 2; selectivity ratio [3]: 3

What does the source list for `CCN1CCN(CC(=O)O[C@H]2C(C)(C)[C@H]3CC[C@]2(C)C3)CC1`?
pIC50 (Marburgvirus): 4.52; pIC50 (Ebolavirus [1]): 5.04

With `CC1(C)[C@H]2CC[C@](C)(C2)[C@H]1OC(=O)CN1CCCCC1` as the compound, how does the pIC50 (Marburgvirus) read?
The pIC50 was 3.79.

And the pIC50 (Ebolavirus [1])?
The pIC50 was 4.77.

And the selectivity ratio [2]?
The selectivity ratio was 13.

And the selectivity ratio [3]?
The selectivity ratio was 1.

With `CC1(C)[C@@H]2CC[C@@]1(CS(=O)(=O)N1CCCCC1)C(=O)C2` as the compound, how does the pIC50 (Ebolavirus [4]) read?
The pIC50 was 4.22.

With `C[C@@H]1[C@H]2C[C@@H](C[C@H]1OC(=O)CCN1CCCCC1)C2(C)C` as the compound, how does the pIC50 (Marburgvirus) read?
Its pIC50 is 4.62.

And the pIC50 (Ebolavirus [1])?
Its pIC50 is 4.84.

What about the selectivity ratio [2] of the same compound?
Its selectivity ratio is 23.

And the selectivity ratio [3]?
The selectivity ratio was 13.

Which results are given for `CC1CCN(CCC(=O)O[C@H]2C(C)(C)[C@H]3CC[C@]2(C)C3)CC1`?
pIC50 (Marburgvirus): 4.66; pIC50 (Ebolavirus [1]): 5.41; selectivity ratio [2]: 48; selectivity ratio [3]: 8

What does the source list for `CC1(C)[C@H]2CC[C@](C)(C2)[C@H]1OC(=O)CCCN1CCOCC1`?
pIC50 (Marburgvirus): 4.17; pIC50 (Ebolavirus [1]): 5.19; selectivity ratio [2]: 40; selectivity ratio [3]: 3

With `CC1(C)[C@H]2CC[C@](C)(C2)[C@H]1OC(=O)CCN1CCCCC1` as the compound, how does the pIC50 (Marburgvirus) read?
Its pIC50 is 4.51.

What about the pIC50 (Ebolavirus [1]) of the same compound?
The pIC50 was 4.77.

And the selectivity ratio [2]?
The selectivity ratio was 20.

What about the selectivity ratio [3] of the same compound?
The selectivity ratio was 11.

What does the source list for `CC1(C)[C@H]2CC[C@](C)(C2)[C@H]1OC(=O)CN1CCN(c2ccccc2)CC1`?
pIC50 (Marburgvirus): 4.25; pIC50 (Ebolavirus [1]): 5.24; selectivity ratio [2]: 17; selectivity ratio [3]: 1

With `C[C@@H]1[C@H]2C[C@@H](C[C@H]1OC(=O)CCCN1CCN(C)CC1)C2(C)C` as the compound, how does the pIC50 (Marburgvirus) read?
The pIC50 was 4.62.

And the pIC50 (Ebolavirus [1])?
The pIC50 was 5.55.

What about the selectivity ratio [2] of the same compound?
The selectivity ratio was 58.

What about the selectivity ratio [3] of the same compound?
The selectivity ratio was 6.

With `CC1(C)[C@@H]2CC[C@@]1(CS(=O)(=O)N1CCOCC1)C(=O)C2` as the compound, how does the pIC50 (Ebolavirus [4]) read?
Its pIC50 is 6.05.

With `C[C@@H]1[C@H]2C[C@@H](C[C@H]1OC(=O)CN1CCOCC1)C2(C)C` as the compound, how does the pIC50 (Ebolavirus [1]) read?
Its pIC50 is 3.97.

What about the selectivity ratio [2] of the same compound?
The selectivity ratio was 1.

With `CN1CCN(S(=O)(=O)C[C@]23CC[C@H](CC2=O)C3(C)C)CC1` as the compound, how does the pIC50 (Ebolavirus [4]) read?
The pIC50 was 3.27.

With `C[C@@H]1[C@H]2C[C@@H](C[C@H]1OC(=O)CCCN1CCCCC1)C2(C)C` as the compound, how does the pIC50 (Marburgvirus) read?
The pIC50 was 5.05.

What about the pIC50 (Ebolavirus [1]) of the same compound?
Its pIC50 is 5.40.

And the selectivity ratio [2]?
Its selectivity ratio is 30.

What about the selectivity ratio [3] of the same compound?
The selectivity ratio was 13.

With `C[C@@H]1[C@H]2C[C@@H](C[C@H]1OC(=O)CN1CCCCC1)C2(C)C` as the compound, how does the pIC50 (Marburgvirus) read?
The pIC50 was 3.97.

And the pIC50 (Ebolavirus [1])?
Its pIC50 is 4.38.

And the selectivity ratio [2]?
Its selectivity ratio is 7.

And the selectivity ratio [3]?
The selectivity ratio was 3.

Which results are given for `C[C@@H]1[C@H]2C[C@@H](C[C@H]1OC(=O)CCN1CCOCC1)C2(C)C`?
pIC50 (Marburgvirus): 3.81; pIC50 (Ebolavirus [1]): 4.24; selectivity ratio [2]: 4; selectivity ratio [3]: 1

What does the source list for `C[C@@H]1[C@H]2C[C@@H](C[C@H]1OC(=O)CCCN1CCOCC1)C2(C)C`?
pIC50 (Marburgvirus): 4.41; pIC50 (Ebolavirus [1]): 4.68; selectivity ratio [2]: 5; selectivity ratio [3]: 2

With `CC1(C)[C@H]2CC[C@](C)(C2)[C@H]1OC(=O)CCN1CCOCC1` as the compound, how does the pIC50 (Marburgvirus) read?
Its pIC50 is 4.19.

What about the pIC50 (Ebolavirus [1]) of the same compound?
The pIC50 was 4.24.

Which results are given for `CC1CCN(CCCC(=O)O[C@H]2C(C)(C)[C@H]3CC[C@]2(C)C3)CC1`?
pIC50 (Marburgvirus): 4.58; pIC50 (Ebolavirus [1]): 5.55

Which results are given for `CN(C)CCOc1ccc(/C(=C(/CCCl)c2ccccc2)c2ccccc2)cc1` [TOREMIFENE]?
pIC50 (Marburgvirus): 6.15; pIC50 (Ebolavirus [1]): 6.70
